Assay results: patent publication US8354522B2, “Immunostimulatory oligoribonucleotides” (Coley Pharmaceutical GmbH, priority 2005, dated 2013)

Experiments:
Assay type in all cases: cell-based
Bovine PBMC = assay: Cytokine production by bovine PBMC (48 hours, ELISA); details: 10 μg/ml (H.D.) and 2.5 μg/ml (L.D.)
Procedure: FIG. 11 is a set of bar graphs showing differences between TLR8 ORN (SEQ ID NO:13) and TLR7/8 ORN (SEQ ID NO:21). SEQ ID NO:5 ORN was used as a control. Bovine PBMC were incubated with either 10 μg/ml ORN (HD) or 2.5 μg/ml ORN (LD) for 48 hours. Supernatants were collected and analyzed by ELISA. FIGS. 11a-c show the level of IL-12, IFN-γ, and TNF-alpha, respectively.
The assay was repeated with a TLR8 ORN (SEQ ID NO:13), a TLR 7/8 ORN (SEQ ID NO:21) and a control ORN (SEQ ID NO:5) (Table 3) at both a high dose (H.D., 10 μg/ml) and a low dose (L.D., 2.5 μg/ml).

[1] = tested on: Splenocytes from 3 Sprague-Dawley rats; assay: TNF-alpha production by rat splenocytes (ELISA); details: pooled rat splenocytes, ORN complexed to 62.5 μg/ml DOTAP with 1/5 dilution, 20 hours
Procedure: Splenocytes from 3 Sprague-Dawley rats were pooled and stimulated with indicated concentrations of SEQ ID NO:21, SEQ ID NO:13 (both complexed to 62.5 μg/ml DOTAP with 1/5 dilution), R-848 or DOTAP alone (62.5 μg/ml->1/5 dilution). Supernatants were harvested after 20 hours and TNF-alpha levels were measured by ELISA.

Human PBMC = assay: Cytokine production upon human PBMC stimulation (ORN complexed to DOTAP, 16 h, ELISA); design: key to IFN-alpha / TNF-alpha: +: cytokine production; −: no cytokine production; details: for IFN-alpha / TNF-alpha: human PBMC stimulated for 16 h, supernatant ELISA
How it was run: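 Healthy-donor PBMCs were stimulated for 16 h with ORN complexed to DOTAP (25 μg/ml), titrated in 7 steps of 1/3 from 2 μM (to 0.9 nM). IFN-alpha and TNF-alpha in supernatants were measured by ELISA. Mean/max activity at 0.6 μM and EC50 came from 3-6 donors over two experiments.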

Substance | IFN-γ production (Bovine PBMC) | TNF-alpha production [1] | IFN-alpha production upon PBMC stimulation (in words) (Human PBMC; human PBMC) | IFN-alpha (Human PBMC) | TNF-alpha (Human PBMC) | IL-12 production (Bovine PBMC) | TNF-alpha production (Bovine PBMC)
U*U*A*U*U*A*U*U*A*U*U*A*U*U*A*U*U*A*U*U (UUAUUAUUAUUAUUAUUAUU; chemistry not fully specified) [SEQ ID NO: 13] | stimulated production of IFN-γ | no TNF-alpha production | no IFN-alpha cytokine production | − | + |  | 
U*U*G*U*U*G*U*U*G*U*U*G*U*U*G*U*U*G*U*U (UUGUUGUUGUUGUUGUUGUU; listed as RNA, chemistry not fully specified) [SEQ ID NO: 21] | stimulated production of IFN-γ | resulted in TNF-alpha production |  | + | + | significant production of IL-12 and TNF-alpha | significant production of IL-12 and TNF-alpha
